Data taken from patent US8058462B2, “Ligand modified poly oxo-hydroxy metal ion materials, their uses and processes for their preparation” (Medical Research Council, priority 2007, dated 2011).

What was measured:
Type in all cases: physicochemical
[1] = In vitro gastrointestinal digestion assay (simulated stomach and duodenum); details: pH 1.2
Description: An amount of the solid ligand-modified poly oxo-hydroxy ferric iron materials or control iron materials namely ferrous sulphate, ferric chloride, or unmodified ferric oxo-hydroxide, equivalent to 60 mg elemental iron, were added to a synthetic gastric (stomach) solution (50 mL of 2 g/L NaCl, 0.15 M HCl and 0.3 mg/mL porcine pepsin) and incubated at 37° C. for 30 minutes with radial shaking. […] The mixture was incubated at 37° C. for 60 min with radial shaking. Homogeneous Aliquots (1 mL) were collected at different time points during the process and centrifuged at 13,000 rpm for 10 minutes to separate the aggregate and aquated phases. The supernatant was analysed for iron content by ICPOES. […] The mass of remaining material (i.e. the wet pellet) was recorded. Concentrated HNO3 was added to this wet pellet and the new mass recorded. […] The starting amount of iron was calculated from the iron in the wet pellet plus the iron in the supernatant. To differentiate between soluble iron and aquated particulate iron in the supernatant, at each time point, this fraction was also ultrafiltered (Vivaspin 3,000 Da molecular weight cut-off polyethersulfone membrane, Sartorius Stedium Biotech GmbH, Goettingen, Germany) and again analysed by ICPOES. […]

[2] = Screening assay: formation (precipitation) of solid poly oxo-hydroxy iron in presence of ligand; details: ratios 1:1 to 1:5
Description: A series of dietary ligands was tested in a screening assay for their effects on the formation of solid ligand-modified poly oxo-hydroxy metal ion materials. Briefly, in a centrifuge tube, a fixed volume of stock solution of ferric iron (400 mM FeCl3 with 50 mM MOPS, pH 1.4) was mixed with varying volumes of a stock solution of ligand (400 mM with the exception of maltol which was 200 mM, plus MOPS at 50 mM and 0.9% NaCl) to obtain the desired metal:ligand ratio. The volumes were then equally adjusted to parity with a solution of 50 mM MOPS and 0.9% NaCl. […] A small aliquot was taken to confirm the starting iron concentration and then the pH was raised to ˜6.5 by drop-wise addition of concentrated NaOH to avoid high volume changes. After centrifugation at 2500 rpm for 10 minutes, an aliquot of supernatant was taken to analyse the iron remaining in solution. The remaining supernatant was discarded and a fixed volume of dissolution buffer at pH 6 (MOPS10 mM) or pH 4 (Acetic acid 10 mM) was then added to the wet solid of each tube and incubated overnight at room temperature. The tubes were then centrifuged (2500 rpm for 10 minutes) and an aliquot of supernatant taken to determine the iron that was disaggregated. The iron concentration in each aliquot was measured by ICPOES analysis.
Initially, the ligands were all tested using the screening assay described above at ratios of 1:1 to 1:5 and classified in three groups.

[3] = Screening assay: re-dissolution of the wet solid in pH 6 and pH 4 buffers; details: solid formed with the ligand
Description: A series of dietary ligands was tested in a screening assay for their effects on the formation of solid ligand-modified poly oxo-hydroxy metal ion materials. […] The volumes were then equally adjusted to parity with a solution of 50 mM MOPS and 0.9% NaCl. […] After centrifugation at 2500 rpm for 10 minutes, an aliquot of supernatant was taken to analyse the iron remaining in solution. […] The iron concentration in each aliquot was measured by ICPOES analysis.

| Compound | Ligand group by effect on the amount of solid material formed [2] | also measured |
| --- | --- | --- |
| O=S(=O)([O-])[O-].[Fe+2] [Ferrous sulphate, ferrous sulphate] | – | gastric disaggregation and dissolution profile (in words) [1]: disaggregates and dissolves very well |
| NC(=O)CC[C@H](N)C(=O)O [glutamine] | intermediate ligands | – |
| O=C(O)CC(O)C(=O)O (centres unmarked) [malic acid] | intermediate ligands | – |
| Cc1occc(=O)c1O [maltol] | – | re-dissolution of the iron at pH 6.0 (in words) [3]: did not promote any re-dissolution |
| O=C(O)C(O)C(O)C(=O)O (centres unmarked) [tartaric acid] | intermediate ligands | – |
